Columns and labels:
[1] = test system: GTC seizures in human patients; assay: THC treatment of several human patients with GTC seizures (responder rate, one-year remission rate, adverse effects); type: in vivo
Description: Several human patients commenced treatment with THC after a first visit. More details about the treatment are provided below. The group included 82 total adult patients and 12 total pediatric patients. Of those 94 patients, 34 adult patients and 10 pediatric patients had experienced at least one GTC seizure in the year preceding the first visit. At the time of first visit, 14 of the 34 adult patients and 8 of the 10 pediatric patients had never taken THC. At the time of first visit, five of the 34 adult patients and two of the 10 pediatric patients were consistently/regularly taking THC. At the time of first visit, 15 of the 34 adult patients and none of the 10 pediatric patients were inconsistently/irregularly taking THC or had taken THC at some point in the past and were no longer taking THC.
At the time of first visit, 16 of the 34 adult patients had treatment resistant epilepsy, which means the patients had persistent GTC seizures despite taking two different anti-seizure medications at, or prior to, the first visit. At the time of first visit, all 10 of the pediatric patients had treatment resistant epilepsy.
The first visit means the date when the patient first saw the doctor for evaluation for THC treatment for GTC seizures. Responder rates means the percentage of patients that had at least a 50% reduction in GTC seizure frequency over a one-year treatment period with THC. One-year remission rate means the percentage of patients that experienced no GTC seizures in a one-year period after commencing THC treatment.
All of the 34 adult patients and 10 pediatric patients were taking other anti-seizure medications or had other anti-seizure treatment at the time of the first visit. […] Those anti-seizure medications and other anti-seizure treatments included: lamotrigine, topiramate, topiramate XR, vagus nerve stimulation, phenytoin, valproic acid, zonisamide, benzodiazepine, surgery, levetiracetam, carbamazepine, oxcarbazepine, lacosamide, perampanel, clonazepam, phenobarbial, pregabalin, gabapentin, rufinamide, CBD (e.g., Epidiolex), clobazam, and felbamate. Also, all patients who were using THC oral dosages were using products that included no CBD or products that included CBD in doses well below the therapeutic dose for Epidiolex.
THC Treatment for the 82 adult patients varied. Many of the patients smoked marijuana, so the dosage and/or timing of the dosage was unknown. Because CBD is delivered at sub-therapeutic levels when marijuana is smoked, it is acceptable to attribute any therapeutic effect to THC. The label for the CBD drug Epidiolex includes dosages starting at 5 mg/kg daily for all indications, and increasing to maintenance doses of 10 mg/kg or 20 mg/kg for Lennox-Gestault Syndrome and Dravet Syndrome, and increasing to maintenance doses of 25 mg/kg per day for Tuberous Sclerosis Complex. When 1 gram of cannabis is smoked, it delivers CBD to the lungs in doses well below the therapeutic dose levels prescribed for Epidiolex. Some other patients took unknown dosages of THC orally.

[2] = test system: seizures / EEG abnormalities in human patient; assay: Example 8 pediatric patient with atonic seizures, myoclonic seizures and Doose syndrome (24 hour EEG, seizures); type: in vivo; details: CBD transdermal patches
Method: They had continued to experience several seizures per day of all types despite multiple combination regimens of prescription anti-seizure medications and a trial of THC-A transdermal patch and CBD (Charlotte's Web) oral tincture and CBD transdermal patches up until the day they were first evaluated for cannabinoid treatment (age 4.5 on Mar. 8, 2016). […] They were then prescribed 1 mg oral THC tincture three times per day. On Mar. 8, 2018, the patient returned for follow-up where it was learned that all cannabinoids had been discontinued. […] The THC-A transdermal patch was restarted at 1.875 mg/day with a reduction in EEG abnormalities to 400/24 hours. Oral THC 2.5 mg BID was then restarted with a further reduction in EEG abnormalities to 20/24 hours. […] Due to the significant reduction in brain pre-seizure activity after restarting THC and concerns that there are effective dosage variations among transdermal products, the patient was then prescribed oral THC 2.5 mg BID which they continue to take.

[3] = test system: seizures in human patient; assay: Example 3 human patient, GTC and complex partial seizures; type: in vivo
Description: A patient first started having GTC and complex partial (CP) seizures. […] The patient was referred for evaluation for initiation of cannabinoid/THC treatment in March 2014.

[4] = test system: DS, LGS, TSC patients; assay: EPIDIOLEX pediatric randomized controlled clinical trials (RCTs); type: in vivo, human; details: Ped. RCTs; expected 5%
[5] = test system: Treatment Resistant Epilepsy patients; assay: EPIDIOLEX expanded access program (EAP), adults and pediatrics; type: in vivo, human; details: expected 5%
[6] = test system: DS, LGS, TSC patients; details: Ped. RCTs, cited from earlier work
[7] = test system: Treatment Resistant Epilepsy patients; details: EAP, cited from earlier work
[8] = test system: GTC seizures in human patient; assay: Example 6 human patient, GTC and CPS seizures after temporal lobectomy; type: in vivo; details: re-introduction of lamotrigine (225 mg twice a day)
Method: A patient with a longstanding history of GTC and CPS seizures ([…]) was evaluated for surgical intervention and underwent a right temporal lobectomy in 2013. No seizure activity was experienced for 9 months; thereafter, seizures recurred with GTC seizures occurring one time per week requiring hospitalization.
The patient was first evaluated for cannabinoid treatment on Feb. 11, 2016, […] with their parents (caregivers). They were still experiencing approximately 1 GTC seizure per month at that time. On physical examination, their neurological system was grossly within normal limits. The patient's mentation was evaluated as slow, but they were responsive and fully oriented. At the time of this first visit, they had no previous exposure to cannabinoid treatment.

Compound: C=C(C)[C@@H]1CCC(C)=C[C@H]1c1c(O)cc(CCCCC)cc1O [CBD, cannabidiol]
- seizure outcome, individual pediatric patient ([1]; CBD-only containing product, 134 mg CBD per day and no THC): frequent “violent” GTC seizures
- seizure frequency and severity, individual pediatric patient ([1]; switched to 30 mg CBD only (2015)): seizure frequency and severity increased
- effect on seizures [2]: worsened seizures in a dose-related fashion
- effect on seizures ([3]; CBD patches and an oral CBD spray): no improvement in their seizures
- effect on seizures ([3]; oral CBD 0.48 mg/kg, or 50 mg per day, along with topiramate): no improvement

Compound: C=C(C)[C@@H]1CCC(C)=C[C@H]1c1c(O)cc(CCCCC)cc1O [EPIDIOLEX ®]
- Increase in 1 YR Seizure Remission Rate over expected [4]: ~1.4X
- Increase in 1 YR Seizure Remission Rate over expected [5]: ~2.2X
- 1 YR Seizure Remission Rate ([6]; @14 wks): 6-7% @14 wks
- Responder Rate ([6]; DS, LGS, TSC, @ 14 wks): ~45% @ 14
- Adverse Events [6]: Up to 12%
- 1 YR Seizure Remission Rate ([7]; @48 wks): 11% @48 wks
- Responder Rate ([7]; TRE, @48 wks): 53% @48 wks
- Adverse Events [7]: 7%

Compound: Nc1nnc(-c2cccc(Cl)c2Cl)c(N)n1 [lamotrigine]
- effect on seizures ([3]; lamotrigine 60 mg twice daily): still having seizures
- seizure frequency [8]: decreased to 1 GTC seizure about every month
